Reference: publication PMC6539903 (Molecules, 2019)

What was measured:
[1] = tested on: SW620 xenografts tumor model; assay: SW620 xenograft model in vivo; conditions: nude mice, 20 mg/kg intraperitoneal every 2 days, start about 100 mm^3
Method: In view of potent cox-2 selective inhibitory activity and anti-colon cancer proliferation activity in vitro, compound 4b was further evaluated for anti-colon cancer activity in vivo. SW620 cells (5 × 10^6) were subcutaneously injected into the rightwing nude mice to establish a xenograft model. […]. Intraperitoneal administration was performed every 2 days and tumor volume changes were recorded for 12 consecutive days. […]. After 12 days of treatment, the tumor volumes of the two treatment groups were 43.71 mm^3 and 51.69 mm^3, respectively. Finally, the tumors of each group were removed and weighed to calculate the ratio of tumor weight to body weight. […] In contrast, body weight increased slightly in the vehicle group at the later stage of treatment (Figure 5C). […] This series of representative compounds 4b, as a selective COX-2 inhibitor for the targeted therapy of colon cancer, had prominent research prospect.
Nude mice aged 6-8 weeks were purchased from the model animal research center of nanjing university and bred in a specific non-pathogenic environment. A xenograft model was established by subcutaneous injection of SW620 cells […] DMEM into the right wing (18–22 g) of nude mice. […]. Vehicle treatment groups were treated with polyethylene glycol (containing 1% DMSO). […] After administration, weighed every two days and measured tumor volume with a vernier caliper. […]

[2] = molecular target: T1, COX-1 (Homo sapiens, UniProt P23219); assay: COX-1 inhibition assay (COX-1 ELISA kit); assay type: biochemical; conditions: mean of four determinations; read-out: IC50 ± SD COX-1
T1 construct: purchased Cayman Chemical 701170
T1 sequence (P23219 24-599): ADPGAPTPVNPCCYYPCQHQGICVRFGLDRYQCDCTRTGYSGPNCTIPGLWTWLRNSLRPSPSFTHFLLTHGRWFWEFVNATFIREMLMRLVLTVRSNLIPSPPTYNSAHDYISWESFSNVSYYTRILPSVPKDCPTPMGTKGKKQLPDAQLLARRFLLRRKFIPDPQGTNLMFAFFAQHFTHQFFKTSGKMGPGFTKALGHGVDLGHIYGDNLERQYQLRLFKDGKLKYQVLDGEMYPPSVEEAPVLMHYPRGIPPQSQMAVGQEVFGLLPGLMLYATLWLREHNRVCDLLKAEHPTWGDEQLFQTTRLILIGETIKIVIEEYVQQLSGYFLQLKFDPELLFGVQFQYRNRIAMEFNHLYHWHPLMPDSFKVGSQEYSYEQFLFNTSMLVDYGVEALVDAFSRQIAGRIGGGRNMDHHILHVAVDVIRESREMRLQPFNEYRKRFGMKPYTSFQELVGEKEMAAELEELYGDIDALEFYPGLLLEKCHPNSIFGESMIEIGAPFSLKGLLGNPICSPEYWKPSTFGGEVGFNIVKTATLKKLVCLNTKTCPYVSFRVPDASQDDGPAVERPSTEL
Method: (§1) 3-(4,5-Dimethylthiazol-2-yl)-2,5-diphenyltetrazolium (MTT) were purchased from Beyotime Institute of Biotechnology (Haimen, China). Annexcin V-FITC cell apoptosis assay kit (catalog No.BA11100) was purchased from BIO-BOX (Nanjing, China). Fibronectin (#F1056) and laminin (#L2020) were purchased from Sigma-Aldrich (St. Louis, MO, USA).
(§2) Then 1 M HCl was added to the reaction mixture to stop the reaction, and one-tenth of the volume of saturated stannous chloride (50 mg/mL) was added. The reaction mixture was incubated at room temperature for 5 min, and PGF2 and PGH2 were produced.

[3] = molecular target: T2, COX-2 (Homo sapiens, UniProt P35354); assay: COX-2 inhibition assay (COX-2 ELISA kit); assay type: biochemical
T2 construct: purchased Cayman Chemical 701180
T2 sequence (P35354 18-604): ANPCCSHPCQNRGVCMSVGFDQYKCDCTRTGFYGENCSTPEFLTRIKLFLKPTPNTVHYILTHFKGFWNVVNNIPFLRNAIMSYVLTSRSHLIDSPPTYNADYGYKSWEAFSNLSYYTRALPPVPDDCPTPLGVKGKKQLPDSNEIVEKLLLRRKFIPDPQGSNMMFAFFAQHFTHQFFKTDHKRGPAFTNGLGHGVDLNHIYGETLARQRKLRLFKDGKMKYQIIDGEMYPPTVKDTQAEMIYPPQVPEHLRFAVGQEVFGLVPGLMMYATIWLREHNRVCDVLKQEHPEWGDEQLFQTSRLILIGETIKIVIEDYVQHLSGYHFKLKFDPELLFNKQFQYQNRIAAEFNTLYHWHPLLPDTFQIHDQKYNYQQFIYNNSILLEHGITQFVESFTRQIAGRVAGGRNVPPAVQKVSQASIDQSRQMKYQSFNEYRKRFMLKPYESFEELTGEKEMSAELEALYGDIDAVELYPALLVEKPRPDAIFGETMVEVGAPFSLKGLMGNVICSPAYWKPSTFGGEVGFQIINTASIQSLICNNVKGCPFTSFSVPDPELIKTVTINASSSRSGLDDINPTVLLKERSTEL
Method: as §1, §2

[4] = tested on: SW620 cells; assay: MTT antiproliferation assay, SW620; assay type: cell-based; conditions: Homo sapiens, SW-620, 48 h, n = 3, read-out: IC50 ± SD SW620
Method: (§3) MCF-7 (human breast cell line), HeLa (human cervical cell line), A549 (human lung cell line), HepG2 (human liver cell line), SW620 (human colorectal cell line) and a non-cancer cell line, NCM460 (Human colonic epithelial cells) were preserved at the State Key Laboratory of Pharmaceutical Biotechnology, Nanjing University (Nanjing, China).
(§4) The antiproliferative activity of the synthetic compounds against the SW620, MCF-7, HeLa, A549, HepG2, and NUM460 cell lines was evaluated by a colorimetric assay based on a modified standard (MTT). […] Thereafter, MTT (5 mg/mL in PBS) was added to each well and incubated for 4 h. 150 μL of DMSO was added to each well and shaken with a shaker. The absorbance (OD 570 nm) was read at 630 nm on an ELISA reader (ELx800, BioTek, montpelier, VT, USA). IC50 values for the compounds were calculated by comparison to DMSO treated control wells. Three replicate wells were used for each drug concentration. Each assay was performed three times.

[5] = tested on: MCF-7; assay: MTT antiproliferation assay, MCF-7; assay type: cell-based; conditions: Homo sapiens, MCF7, 48 h, n = 3, read-out: IC50 ± SD MCF-7
Method: as §3, §4

[6] = tested on: HeLa; assay: MTT antiproliferation assay, HeLa; assay type: cell-based; conditions: Homo sapiens, 48 h, n = 3, read-out: IC50 ± SD HeLa
Method: as §3, §4

[7] = tested on: A549; assay: MTT antiproliferation assay, A549; assay type: cell-based; conditions: Homo sapiens, 48 h, n = 3, read-out: IC50 ± SD A549
Method: as §3, §4

[8] = tested on: HepG2; assay: MTT antiproliferation assay, HepG2; assay type: cell-based; conditions: Homo sapiens, 48 h, n = 3, read-out: IC50 ± SD HepG2
Method: as §3, §4

[9] = MTT cytotoxicity assay, non-cancer colon cells; assay type: cell-based; conditions: human, NCM460 colonic epithelial cells (non-cancer cell line), n = 3, non-cancer cell line, read-out: CC50 ± SD NUM460
Method: Besides, the MTT assay was performed on a non-cancer line NCM460 to assess the cytotoxicity of the test compound to normal colon cells.
as §3, §4

[10] = tested on: SW620 cells; assay: Cell apoptosis assay (Annexin V-FITC/PI flow cytometry); assay type: cell-based, human; conditions: 24 h (0 μM: 7.9%)
Method: To confirm that antiproliferation activities of SW620 were associated with apoptosis, SW620 cell apoptosis induced by compound 4b was determined using flow cytometry with Annexin V-FITC/PI Apoptosis Detection Kit. […] The percentages of cell apoptosis 7.9%, 19.9%, 45.9%, and 65.0% were responding to the concentration of compound 4b 0 μM, 2.0 μM, 4.0 μM, and 8.0 μM, respectively.
SW620 cells were seeded in the 6-well plate ([…]) and treated with compound 4b to induce apoptosis at final concentrations of 0, 2, 4, and 8 μM for 24 h. After incubation, the cells were extracted with trypsin and washed with cold PBS twice. Cells are then bound to 500 μL buffer and then annexin-v/FITC (5 μL) and PI (5 μL) were added to the medium for another 10 min to incubate darkness. Staining cells were analyzed by flow cytometry (Becton Dickinson, Franklin, NJ, USA). Flowjo 7.6.1 software (Emerald Biotech Co. Ltd., Hangzhou, China) was used for statistical analysis.

SMILES | tumor volume after 12 days of treatment [1] [mm^3] | IC50 [2] [nM] | Selectivity Index (SI) (COX-1 IC50/COX-2 IC50) ([3]; in vitro COX-2 selectivity index) | IC50 ([3]; mean of four determinations, read-out: IC50 ± SD COX-2) [nM] | IC50 [4] [nM] | IC50 [5] [nM] | IC50 [6] [nM] | IC50 [7] [nM] | IC50 [8] [nM] | CC50 at 48 h [9] [nM] | percentage of cell apoptosis ([10]; SW620, 2.0 μM) [%] | percentage of cell apoptosis ([10]; SW620, 4.0 μM) [%] | percentage of cell apoptosis ([10]; SW620, 8.0 μM) [%] | melting point [°C]
Cc1ccc(-c2cc(C(F)(F)F)nn2-c2ccc(S(N)(=O)=O)cc2)cc1 [Celecoxib, reference compound] | 51.69 | – | – | – | – | – | – | – | – | – | – | – | – | –
Cc1ccc(C2=NN(c3ccc(S(N)(=O)=O)cc3)C(c3ccc4c(c3)OCO4)C2)cc1 (stereo not drawn) [Compound 4b, 4-(5-(Benzo[d][1,3]dioxol-5-yl)-3-(p-tolyl)-4,5-dihydro-1H-pyrazol-1-yl)benzenesulfonamide] | 43.71 | 48060 ± 350 | 137.3 | 350 ± 20 | 860 ± 20 | 2990 ± 130 | 2980 ± 170 | 1940 ± 60 | 2960 ± 140 | 134000 ± 7850 | 19.9 | 45.9 | 65.0 | 200 to 201
